1 molecule from PubChem BioAssay AID1794812 can be followed below.

In this assay the target is Excitatory amino acid transporter 3 (Homo sapiens) (UniProt P43005). In words: SLC1A1 substrate-evoked membrane depolarization, dose response, membrane potential dye, HEK-293 overexpressing cells (AID 1794812). As to conditions: HEK-293 SLC1A1 OE, FLIPR membrane potential dye.

Results filed as inconclusive are left out.

Sequence of Excitatory amino acid transporter 3 (Homo sapiens) (P43005 whole entry, looked up): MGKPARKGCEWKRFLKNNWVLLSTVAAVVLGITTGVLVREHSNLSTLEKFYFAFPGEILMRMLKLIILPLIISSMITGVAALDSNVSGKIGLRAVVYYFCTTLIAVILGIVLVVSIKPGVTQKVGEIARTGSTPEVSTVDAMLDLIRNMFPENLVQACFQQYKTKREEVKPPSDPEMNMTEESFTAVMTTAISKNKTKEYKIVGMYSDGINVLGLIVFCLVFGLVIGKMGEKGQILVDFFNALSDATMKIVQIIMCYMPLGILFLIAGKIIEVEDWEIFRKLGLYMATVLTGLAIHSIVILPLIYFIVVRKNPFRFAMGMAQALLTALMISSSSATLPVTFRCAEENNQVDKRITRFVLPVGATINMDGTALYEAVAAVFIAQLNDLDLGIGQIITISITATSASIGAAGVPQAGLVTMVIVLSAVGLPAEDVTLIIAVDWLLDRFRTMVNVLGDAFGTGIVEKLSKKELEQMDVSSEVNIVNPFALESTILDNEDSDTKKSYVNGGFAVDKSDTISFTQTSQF

Consider `N[C@@H](CS)C(=O)O`, for which the EC50 (usually the concentration that produces a half-maximal response) was 161 µM.
